pEC50: −log10 of the molar value. Like-named read-outs stand apart in the source and are kept apart here.
Target: T1, human NOD2 (Homo sapiens, UniProt Q9HC29)
T1 construct: host or cells: HEK293
Assay: human NOD2 specific reporter gene assay (NF-κB induction)
Format: cell-based
Details: for pEC50: human NOD2 reporter gene assay, read-out: EC50 values, human NOD2 agonistic potency; for EC50: human NOD2 specific reporter gene assay, arithmetic mean of quadruplicate samples, NA* indicates inactive under the tested conditions, read-out: hNOD2 Agonistic Activity (μM), EC50
Method: Example 5: High-throughput screens in porcine blood: Curated compound collections were obtained from the Institute for Therapeutics Discovery & Development at the University of Minnesota. Compound transfers from source (80 nL of 10 mM stocks) to assay plates were performed using an Echo 550 acoustic liquid handler (Labcyte, Sunnyvale, Calif.). For most libraries, a target final concentration of 10 μM of compound (in a final volume of 80 μL for the assay described below) was achieved. Compound plates were hermetically sealed and stored at −80° C. until used. Fresh, heparin-anticoagulated porcine blood from healthy animals were obtained under USDA supervision from Midwest Research Swine, LLC (Glencoe, Minn.). 80 μL of hematocrit-enriched porcine blood (low-speed centrifugation, followed by resuspension in DMEM supplemented with 10% fetal bovine serum) was added to compound plates and incubated for 15 h. The following day, the plates were briefly centrifuged (100 g, 10 min), and supernatants were transferred using an automated ViaFlow 384 transfer device (Integra Biosciences Corp., Hudson, N.H.) to assay plates containing of 10^6 cells/mL of each of the following NF-κB/secreted alkaline phosphatase reporter cells suspended in HEK-Blue Detection Media: human IFN-α/β, human IFN-γ, human TNF-α/IL-1β (InvivoGen, San Diego, Calif.). NF-κB translocation was assayed spectrophotometrically using an alkaline phosphatase-specific chromogen (present in HEK-detection medium as supplied by InvivoGen) at 620 nm using a SpectraMax M4 multimode microplate reader (Molecular Devices, Sunnyvale, Calif.). Z′ factors were computed for each TLR/NOD-specific signals. Hits were defined as signals >4σ (in-plate standard deviations for test compounds above negative control means), were deconvoluted in full dose-response assays in human TLR-2/-3/-4/-5/-7/-8/-9 and NOD-1/NOD-2-specific reporter cells in liquid handler-assisted assay formats as described previously. Example 6: Murine knockout cell-lines: The following reagents were obtained through BEI Resources, NIAID, NIH: the microglial cell line derived from MAL/MyD88 double knockout Mice (NR-9904), and the macrophage cell line derived from TRIF/TRAM knockout mice (NR-9568). Example 7: Human NOD1/2-specific reporter gene assays (NF-κB induction), and TLR-2/-3/-4/-5/-7/-8/-9/STING/ISG counter-screens: The induction of NF-κB was quantified using human TLR-2/-3/-4/-5/-7/-8/-9/NOD-1/NOD-2/STING/ISG-specific, rapid-throughput, liquid handler-assisted reporter gene assays as previously described by us (Wu, W. et al. J. Med. Chem. 2010, 53, 3198-3213; Shukla, N. M. et al. J. Med. Chem. 2010, 53, 4450-4465; Agnihotri, G. et al. J. Med. Chem. 2011, 54, 1490-1510 and Ukani, R. et al. Bioorg. Med. Chem. Lett. 2012, 22, 293-295). HEK293 cells stably co-transfected with the appropriate hTLR and secreted alkaline phosphatase (sAP) were maintained in HEK-Blue™ Selection medium. Stable expression of secreted alkaline phosphatase (sAP) under control of NF-κB/AP-1/IRF promoters is inducible by appropriate innate immune stimuli, and extracellular sAP in the supernatant is proportional to NF-κB/IRF induction. Reporter cells were incubated at a density of ˜10^5 cells/ml in a volume of 80 μl/well, in 384-well, flat-bottomed, cell culture-treated microtiter plates in the presence of graded concentrations of stimuli. sAP was assayed spectrophotometrically using an alkaline phosphatase-specific chromogen (present in HEK-detection medium as supplied by InvivoGen) at 620 nm. Example 8: Multiplexed immunoassays for human cytokines: Fresh human peripheral blood mononuclear cells (hPBMC) were isolated from human blood obtained by venipuncture in Cell Preparation Tubes (CPT, Beckton-Dickinson) with informed consent and as per guidelines approved by the University of Minnesota Human Subjects Experimentation Committee. Aliquots of PBMCs or THP-1 cells (10^5 cells in 100 μL/well) were stimulated for 16 h with graded concentrations of test compounds. […]

T1 sequence (Q9HC29 whole entry): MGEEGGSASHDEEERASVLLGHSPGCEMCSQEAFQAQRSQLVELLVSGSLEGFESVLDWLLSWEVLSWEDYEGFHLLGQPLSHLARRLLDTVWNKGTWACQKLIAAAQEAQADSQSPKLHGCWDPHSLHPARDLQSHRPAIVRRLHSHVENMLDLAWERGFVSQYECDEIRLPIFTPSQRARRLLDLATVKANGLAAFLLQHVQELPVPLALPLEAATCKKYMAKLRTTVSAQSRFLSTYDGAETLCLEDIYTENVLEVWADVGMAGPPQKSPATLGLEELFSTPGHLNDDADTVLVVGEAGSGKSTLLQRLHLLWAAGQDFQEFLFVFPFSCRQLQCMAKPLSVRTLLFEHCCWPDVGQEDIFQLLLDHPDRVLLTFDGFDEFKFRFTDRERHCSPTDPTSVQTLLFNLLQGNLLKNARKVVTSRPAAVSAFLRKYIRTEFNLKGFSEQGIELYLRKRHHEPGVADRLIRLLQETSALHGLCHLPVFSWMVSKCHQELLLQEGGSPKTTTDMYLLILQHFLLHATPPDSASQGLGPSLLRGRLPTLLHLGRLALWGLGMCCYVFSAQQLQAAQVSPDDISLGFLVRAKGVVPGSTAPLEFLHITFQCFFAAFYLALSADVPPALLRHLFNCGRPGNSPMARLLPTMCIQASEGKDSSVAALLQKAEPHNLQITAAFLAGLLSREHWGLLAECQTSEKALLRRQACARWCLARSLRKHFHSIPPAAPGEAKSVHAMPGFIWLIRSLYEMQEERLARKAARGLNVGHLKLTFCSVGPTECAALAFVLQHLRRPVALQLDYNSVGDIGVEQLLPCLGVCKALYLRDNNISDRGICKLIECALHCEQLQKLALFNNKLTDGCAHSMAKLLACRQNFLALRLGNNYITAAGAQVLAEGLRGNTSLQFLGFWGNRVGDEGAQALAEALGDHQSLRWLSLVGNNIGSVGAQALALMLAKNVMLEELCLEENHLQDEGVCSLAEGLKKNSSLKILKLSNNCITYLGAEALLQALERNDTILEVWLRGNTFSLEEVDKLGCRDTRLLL

pEC50 | EC50 | SMILES
6.17 | 0.684 µM | CCCCCc1nc2ccccc2n1-c1csc(C(N)=O)c1 [Compound 7e, 4-(2-Pentyl-1H-benzo[d]imidazol-1-yl)thiophene-2-carboxamide]
6.18 | 0.664 µM | CCCCCCc1nc2ccccc2n1-c1csc(C(N)=O)c1 [Compound 7f, 4-(2-Hexyl-1H-benzo[d]imidazol-1-yl)thiophene-2-carboxamide]
